The source of these data is patent US20050255042A1, “On-demand cleavable linkers for radioconjugates for cancer imaging and therapy” (The Regents of the University of California Office of …, priority 2003, published 2005).

Some results are limits rather than exact numbers.

One data set addresses t-PA (Homo sapiens, UniProt P00750). The conditions noted are these: cited from earlier work.
A short description of data set [1]: Cleavage of soluble peptides in human plasma alone, fluorescence plate reader. The class given is in vitro ADME. The conditions noted are these: 90 μM peptide, 10 μl plasma in PBS pH 7.2, without TNKase®. As for the experimental part:
(§1) The peptides in Table 3 were re-synthesized in soluble form with nitrotyrosine (Y(NO2) at the N-terminus and Abz at the ε-amino group of the lysine residue (k(Abz)) at the C-terminus. They were then incubated with human plasma alone or plasma plus TNKase® in a 96-well plate and the cleavage reaction was monitored over a period of time with a fluorescent plate reader. Each well contained 90 μM of peptides, 10 μl of plasma in PBS, ph 7.2, with or without 1 μg of TNKase®, in a final volume of 100 μl. Cleavage was measured as fluorescence intensity at different time intervals in the fluorescence plate reader at 360/440 nm excitation and emission range.

The next data set deals with T1, TNKase® (Homo sapiens, UniProt P00750, H332A/K331A/N152Q/R333A/R334A/T138N).
T1 construct: Activase® is a purified glycoprotein of 527 amino acids produced by recombinant DNA technology; purchased Genentech; host or cells: Chinese Hamster Ovary cells
T1 sequence (P00750 36-562 T138N/N152Q/K331A/H332A/R333A/R334A): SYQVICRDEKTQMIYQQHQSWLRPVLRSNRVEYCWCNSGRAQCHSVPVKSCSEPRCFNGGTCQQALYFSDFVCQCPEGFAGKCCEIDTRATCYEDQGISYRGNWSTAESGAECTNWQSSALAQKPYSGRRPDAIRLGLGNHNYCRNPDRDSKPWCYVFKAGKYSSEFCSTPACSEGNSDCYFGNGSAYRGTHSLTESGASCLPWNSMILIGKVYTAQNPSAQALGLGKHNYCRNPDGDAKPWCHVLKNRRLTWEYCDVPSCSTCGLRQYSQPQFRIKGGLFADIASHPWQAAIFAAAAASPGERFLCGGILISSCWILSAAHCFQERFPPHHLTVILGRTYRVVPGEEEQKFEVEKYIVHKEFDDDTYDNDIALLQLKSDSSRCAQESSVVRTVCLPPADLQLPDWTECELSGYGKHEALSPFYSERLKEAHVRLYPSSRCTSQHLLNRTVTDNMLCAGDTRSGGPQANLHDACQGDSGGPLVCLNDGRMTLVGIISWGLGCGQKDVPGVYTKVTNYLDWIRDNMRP
Put plainly: Cleavage of soluble peptides in plasma plus TNKase®, fluorescence plate reader. The class given is biochemical. As to the method:
as §1

The conditions of data set [2]: 1.25 mg/kg body weight over 3 hours; 8 of 73 patients; cited from earlier work.
The conditions of data set [3]: in vivo; cited from earlier work.

Sequence of t-PA (P00750 36-562, species assumed): as the sequence (P00750 36-562 T138N/N152Q/K331A/H332A/R333A/R334A) above, with N103T, Q117N, A296K, A297H, A298R, A299R counted along it

Take GGSG PFGR↓SA LVPEE: the “hydrolysis efficiency by t-PA versus a peptide of similar length from the native cleavage site of plasminogen” value at t-PA was 5000 fold.
For rqYKYkf [compound 20], the “stability / cleavage in human plasma” value in data set [1] is listed as “completely stable”. Also, the “time to complete degradation by TNKase®” value at TNKase® (10 μg/ml TNKase®) was at most 2 h. In addition, the “degradation on incubation with TNKase®” value on TNKase® (10 μg/ml TNKase®, two hours) is “completely degraded”. At TNKase® (plasma plus TNKase®), the “susceptibility to TNKase® cleavage” value was “rapidly degraded”.
As to “Activase®: purified recombinant t-PA glycoprotein of 527 amino acids, from Genentech”, the “patients with a decrease in fibrinogen to below 100 mg/dl” value in data set [2] is on record as 11%. In data set [3], the initial plasma half-life is 5 min and the plasma clearance was 380 to 570 mL/min.
